Assay results reported in patent publication EP0603240B1, “SAFENING HERBICIDAL PYRAZOLYLSULFONYLUREAS” (priority 1991, dated 1993).

Key:
Assay type in all cases: in vivo
[1] = test system: corn; assay: Example 15, Procedure II: Herbicide No. 1 + butylate (No. 10) with antidotes; conditions: for safening of corn, assessment in words: Herbicide No. 1 1.12 and 0.56 kg/ha + Herbicide No. 10 6.72 kg/ha PPI, Table 15
Experimental: (§1) Containers were filled and compacted with a fumigated silt loam top soil to a depth of about 1.3 cm from the top of the container. A first container was designated as an untreated control, a second container was designated as a herbicide control, and a third container was designated as a herbicide + antidote test container. Each of the containers was seeded with a crop species. A measured amount of herbicide dispersed or dissolved in acetone was applied to a measured quantity of soil. To this same quantity of soil treated with herbicide, there was added a measured amount of antidote dispersed or dissolved in acetone. The quantity of soil treated with the herbicide and antidote was thoroughly mixed to incorporate the herbicide and antidote in the soil uniformly. The seed bed in the third container of soil was covered with the soil treated with the herbicide and antidote and the container was leveled. For each test series, the seed beds of the first and second containers were likewise covered by soil layers. the cover layer of the first container was not treated with herbicide or antidote.
(§2) The containers were then placed on a bench in a greenhouse and sub-irrigated as required for the duration of the test. […] Plant response is measured in terms of percent injury. Antidote efficacy is indicated as the difference in plant injury by the herbicide(s) without the antidote and with the antidote.
(§3) This procedure is the same as Procedure I, but modified in the manner that after incorporation of the chemicals (herbicide and antidote) the containers with the covered seedbed were treated with an initial overhead irrigation equivalent to 0.6 cm rainfall, then subsequently sub-irrigated as required on greenhouse benches.
This example describes experiments designed to investigate the antidotal efficacy of a plurality of antidotes against the herbicidal action of a combination of Herbicide No. 1 and butylate in corn and the prevalent weeds barnyardgrass and velvetleaf. The antidotes used in these experiments were Nos. 1-10, 12, 13 and 15.
The test procedure used in these experiments was that of Procedure II described above. The antidotes were applied to a soil cover layer by pipet after spraying the herbicides onto the soil, followed by incorporation and overhead irrigation.

[2] = test system: corn; assay: Example 9, Procedure II: Herbicide No. 1 + pretilachlor (No. 13) with antidotes; conditions: Herbicide No.13 2.24 kg/ha alone, no antidote
Experimental: as §1, §2, §3
(§4) In this example the safening effect on a composition comprising Herbicide No. 1 and another leading rice herbicide, i.e., Herbicide No. 13, was investigated using the same antidotes and test procedure described in the preceding example. Herbicide No. 13 is pretilachlor, active ingredient used in the commercial rice herbicides RIFIT®, SOFIT® and SOFIT® SUPER.

[3] = test system: velvetleaf (Abutilon theophrasti); assay: as above; conditions: Herbicide No.13 2.24 kg/ha alone, no antidote
Experimental: as §1, §2, §3
(§5) In the series of greenhouse tests described below, for routine screening purposes the herbicide/antidote compositions were tested in crop/weed combinations involving corn as the crop and either or both of the weeds barnyardgrass (Echinochloa crusgalli), a monocotyledonous weed, and velvetleaf (Abutilon theophrasti), a dicotyledonous weed. In the tables below, these weeds are indicated by the symbols "BYG" and "VL", respectively.
as §4

[4] = test system: barnyardgrass (Echinochloa crusgalli); assay: as above; conditions: Herbicide No.13 2.24 kg/ha alone, no antidote
Experimental: as §1, §2, §3, §5, §4

[5] = test system: velvetleaf (Abutilon theophrasti); assay: Example 10, Procedure II: Herbicide No. 1 + propachlor (No. 5) with antidotes; conditions: Herbicide No.5 4.48 kg/ha alone, no antidote
Experimental: as §1, §2, §3, §5
(§6) In this test, the safening effect of various antidotes on the herbicidal combination of Herbicide No. 1 and another α-chloroacetanilide co-herbicide, propachlor, (Herbicide No. 5) was investigated. Propachlor is the active ingredient in the commercial herbicide RAMROD®. Procedure II was also used in this test as in the preceding example.

[6] = test system: barnyardgrass (Echinochloa crusgalli); assay: as above; conditions: Herbicide No.5 4.48 kg/ha alone, no antidote
Experimental: as §1, §2, §3, §5, §6

[7] = test system: corn; assay: as above; conditions: Herbicide No.5 4.48 kg/ha alone, no antidote
Experimental: as §1, §2, §3, §6

[8] = test system: corn; assay: Example 13, Procedure II: Herbicide No. 1 + acetochlor (No. 6) with dichloroacetamide antidotes; conditions: in vivo
Experimental: as §1, §2, §3
In this example a plurality of dichloroacetamide antidotes were tested for their safening efficacy against a herbicidal composition comprising Herbicide No. 1 and a co-herbicide, acetochlor (Herbicide No. 6) in corn in the presence of velvetleaf. The procedure used in this example was Procedure II above.

CC1c2ccccc2CCN1C(=O)C(Cl)Cl (stereo not shown) [Antidote No. 12]
safening of corn, assessment in words [1]: complete protection against corn injury

CCCOCCN(C(=O)CCl)c1c(CC)cccc1CC [Herbicide No.13]
% Injury Corn [2]: 0%
% Injury VL [3]: 5%
% Injury BYG [4]: 100%

CCSC(=O)N(CC(C)C)CC(C)C [Herbicide No.10]
% Injury Corn ([1]; in vivo): 5%

CC(C)N(C(=O)CCl)c1ccccc1 [Herbicide No.5]
% Injury VL [5]: 15%
% Injury BYG [6]: 100%
% Injury Corn [7]: 0%

CC1(C)CN2C(=O)CCC2(C)N(C(=O)C(Cl)Cl)C1 (stereo not shown) [compound 14]
% Injury Corn [8]: 5%

O=C(C(Cl)Cl)N1CCCCN(C(=O)C(Cl)Cl)CCC1 [Antidote No. 8, 1,5-Diazacyclononane, 1,5-bis(dichloroacetyl)-]
safening of corn, assessment in words [1]: complete protection against corn injury
